What was measured:
[1] = Dissociation constant, pKa of the compound by UC titration method; format: physicochemical
[2] = target: T1, Interleukin-1 receptor-associated kinase 4 (Homo sapiens, UniProt Q9NWZ3); assay: Inhibition of IRAK4 (unknown origin)
T1 sequence (Q9NWZ3 whole entry): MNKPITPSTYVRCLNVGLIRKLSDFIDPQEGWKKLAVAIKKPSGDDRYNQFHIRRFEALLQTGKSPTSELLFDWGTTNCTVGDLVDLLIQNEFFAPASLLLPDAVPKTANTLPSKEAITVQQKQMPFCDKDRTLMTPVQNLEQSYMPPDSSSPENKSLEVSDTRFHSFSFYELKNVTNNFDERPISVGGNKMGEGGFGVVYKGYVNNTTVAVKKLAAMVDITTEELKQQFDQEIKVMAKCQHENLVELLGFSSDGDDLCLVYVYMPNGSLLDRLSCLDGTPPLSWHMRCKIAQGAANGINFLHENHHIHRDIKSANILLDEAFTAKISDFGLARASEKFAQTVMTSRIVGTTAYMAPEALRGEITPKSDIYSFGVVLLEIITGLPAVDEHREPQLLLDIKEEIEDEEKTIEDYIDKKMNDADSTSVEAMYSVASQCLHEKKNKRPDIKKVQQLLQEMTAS

[3] = target: Vascular endothelial growth factor receptor 2 (Homo sapiens, UniProt P35968); assay: Inhibition of KDR (unknown origin)
Sequence of Vascular endothelial growth factor receptor 2 (P35968 whole entry): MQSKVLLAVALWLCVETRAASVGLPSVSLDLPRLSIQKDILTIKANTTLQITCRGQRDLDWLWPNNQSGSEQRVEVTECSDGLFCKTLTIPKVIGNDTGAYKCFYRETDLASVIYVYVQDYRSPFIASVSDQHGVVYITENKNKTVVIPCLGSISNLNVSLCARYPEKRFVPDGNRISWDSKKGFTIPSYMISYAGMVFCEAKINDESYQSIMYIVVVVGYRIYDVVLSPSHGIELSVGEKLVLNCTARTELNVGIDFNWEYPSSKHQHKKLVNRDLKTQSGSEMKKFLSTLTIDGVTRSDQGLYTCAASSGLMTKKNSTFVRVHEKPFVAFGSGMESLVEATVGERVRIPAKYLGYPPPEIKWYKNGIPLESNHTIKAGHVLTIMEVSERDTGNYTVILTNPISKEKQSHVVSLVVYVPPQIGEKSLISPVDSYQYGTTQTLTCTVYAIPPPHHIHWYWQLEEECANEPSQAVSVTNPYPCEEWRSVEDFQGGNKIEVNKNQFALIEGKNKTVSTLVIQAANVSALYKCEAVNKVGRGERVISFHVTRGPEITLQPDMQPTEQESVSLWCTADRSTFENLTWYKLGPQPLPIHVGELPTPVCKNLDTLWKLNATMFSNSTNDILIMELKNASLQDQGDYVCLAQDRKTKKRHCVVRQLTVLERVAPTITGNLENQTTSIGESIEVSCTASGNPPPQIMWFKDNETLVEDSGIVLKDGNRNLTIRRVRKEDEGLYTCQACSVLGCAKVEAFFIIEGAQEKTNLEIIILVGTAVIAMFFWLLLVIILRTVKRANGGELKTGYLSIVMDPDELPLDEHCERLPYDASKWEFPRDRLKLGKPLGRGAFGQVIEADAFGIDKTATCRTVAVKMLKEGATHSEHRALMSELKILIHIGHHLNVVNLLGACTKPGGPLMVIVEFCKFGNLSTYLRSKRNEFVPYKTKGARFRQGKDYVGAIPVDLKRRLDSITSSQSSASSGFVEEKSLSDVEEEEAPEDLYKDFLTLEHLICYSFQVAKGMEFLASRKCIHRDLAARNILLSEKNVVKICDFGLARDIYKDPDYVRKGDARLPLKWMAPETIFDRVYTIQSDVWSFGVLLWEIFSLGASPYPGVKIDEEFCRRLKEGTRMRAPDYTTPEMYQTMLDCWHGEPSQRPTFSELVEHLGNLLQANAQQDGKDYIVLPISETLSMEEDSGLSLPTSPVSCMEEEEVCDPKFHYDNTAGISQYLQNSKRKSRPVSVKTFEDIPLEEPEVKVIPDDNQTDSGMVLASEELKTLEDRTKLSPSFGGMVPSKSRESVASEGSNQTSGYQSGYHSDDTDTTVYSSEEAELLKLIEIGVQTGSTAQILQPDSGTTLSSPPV

[4] = target: cAMP-dependent protein kinase catalytic subunit alpha (Homo sapiens, UniProt P17612); assay: Inhibition of PKAa (unknown origin)
[5] = target: Phosphatidylinositol 4,5-bisphosphate 3-kinase catalytic subunit beta isoform (Homo sapiens, UniProt P42338); assay: Inhibition of PI3Kbeta (unknown origin)
Sequence of Phosphatidylinositol 4,5-bisphosphate 3-kinase catalytic subunit beta isoform (P42338 whole entry, canonical isoform): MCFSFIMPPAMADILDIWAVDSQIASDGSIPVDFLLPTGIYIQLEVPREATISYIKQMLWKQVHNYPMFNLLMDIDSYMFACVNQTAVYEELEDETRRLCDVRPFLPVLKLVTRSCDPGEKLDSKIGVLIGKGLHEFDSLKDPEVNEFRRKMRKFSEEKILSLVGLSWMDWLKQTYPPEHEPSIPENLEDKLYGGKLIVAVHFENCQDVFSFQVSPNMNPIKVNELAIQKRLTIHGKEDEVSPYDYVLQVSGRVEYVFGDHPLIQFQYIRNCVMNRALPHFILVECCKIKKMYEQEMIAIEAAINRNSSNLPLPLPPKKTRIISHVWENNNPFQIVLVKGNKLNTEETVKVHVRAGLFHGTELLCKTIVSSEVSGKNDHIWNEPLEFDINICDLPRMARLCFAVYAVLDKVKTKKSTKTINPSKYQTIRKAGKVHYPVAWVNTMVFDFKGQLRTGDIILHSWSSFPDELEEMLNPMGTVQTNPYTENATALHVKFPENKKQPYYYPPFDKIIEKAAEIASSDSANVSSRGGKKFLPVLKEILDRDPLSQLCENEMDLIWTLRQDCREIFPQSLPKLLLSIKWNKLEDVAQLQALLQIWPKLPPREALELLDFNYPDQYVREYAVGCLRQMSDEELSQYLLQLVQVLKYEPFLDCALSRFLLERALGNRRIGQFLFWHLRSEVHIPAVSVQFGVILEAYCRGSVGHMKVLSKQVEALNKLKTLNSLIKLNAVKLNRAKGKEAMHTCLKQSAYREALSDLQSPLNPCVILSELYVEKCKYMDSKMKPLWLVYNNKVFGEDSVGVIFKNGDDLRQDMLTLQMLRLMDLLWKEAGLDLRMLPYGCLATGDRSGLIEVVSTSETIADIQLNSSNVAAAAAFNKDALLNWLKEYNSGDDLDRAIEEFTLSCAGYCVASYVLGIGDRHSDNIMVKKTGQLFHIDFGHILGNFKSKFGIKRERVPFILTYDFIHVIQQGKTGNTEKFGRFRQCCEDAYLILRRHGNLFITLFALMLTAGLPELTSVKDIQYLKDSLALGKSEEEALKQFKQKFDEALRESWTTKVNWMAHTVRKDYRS

[6] = target: Serine/threonine-protein kinase PLK1 (Homo sapiens, UniProt P53350); assay: Inhibition of PLK (unknown origin)
Sequence of Serine/threonine-protein kinase PLK1 (P53350 whole entry, canonical isoform): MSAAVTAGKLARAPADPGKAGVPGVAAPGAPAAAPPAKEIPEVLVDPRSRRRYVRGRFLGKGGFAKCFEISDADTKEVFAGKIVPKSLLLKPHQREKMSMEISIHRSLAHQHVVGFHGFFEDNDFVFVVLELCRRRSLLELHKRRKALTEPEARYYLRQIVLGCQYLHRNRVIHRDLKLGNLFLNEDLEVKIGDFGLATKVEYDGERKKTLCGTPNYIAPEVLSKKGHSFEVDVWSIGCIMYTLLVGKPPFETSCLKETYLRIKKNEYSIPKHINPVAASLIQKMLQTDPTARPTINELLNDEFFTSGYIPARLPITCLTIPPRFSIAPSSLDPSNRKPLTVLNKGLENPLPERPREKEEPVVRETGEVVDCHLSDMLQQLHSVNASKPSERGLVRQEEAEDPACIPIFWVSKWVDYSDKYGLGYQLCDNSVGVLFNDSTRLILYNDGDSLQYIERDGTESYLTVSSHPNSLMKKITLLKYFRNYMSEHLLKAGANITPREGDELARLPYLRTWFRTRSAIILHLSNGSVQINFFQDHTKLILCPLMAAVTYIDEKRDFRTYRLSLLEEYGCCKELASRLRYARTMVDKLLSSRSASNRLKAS

[7] = target: Phosphatidylinositol 4,5-bisphosphate 3-kinase catalytic subunit alpha isoform (Homo sapiens, UniProt P42336); assay: Inhibition of PI3Kalpha (unknown origin)
Sequence of Phosphatidylinositol 4,5-bisphosphate 3-kinase catalytic subunit alpha isoform (P42336 whole entry, canonical isoform): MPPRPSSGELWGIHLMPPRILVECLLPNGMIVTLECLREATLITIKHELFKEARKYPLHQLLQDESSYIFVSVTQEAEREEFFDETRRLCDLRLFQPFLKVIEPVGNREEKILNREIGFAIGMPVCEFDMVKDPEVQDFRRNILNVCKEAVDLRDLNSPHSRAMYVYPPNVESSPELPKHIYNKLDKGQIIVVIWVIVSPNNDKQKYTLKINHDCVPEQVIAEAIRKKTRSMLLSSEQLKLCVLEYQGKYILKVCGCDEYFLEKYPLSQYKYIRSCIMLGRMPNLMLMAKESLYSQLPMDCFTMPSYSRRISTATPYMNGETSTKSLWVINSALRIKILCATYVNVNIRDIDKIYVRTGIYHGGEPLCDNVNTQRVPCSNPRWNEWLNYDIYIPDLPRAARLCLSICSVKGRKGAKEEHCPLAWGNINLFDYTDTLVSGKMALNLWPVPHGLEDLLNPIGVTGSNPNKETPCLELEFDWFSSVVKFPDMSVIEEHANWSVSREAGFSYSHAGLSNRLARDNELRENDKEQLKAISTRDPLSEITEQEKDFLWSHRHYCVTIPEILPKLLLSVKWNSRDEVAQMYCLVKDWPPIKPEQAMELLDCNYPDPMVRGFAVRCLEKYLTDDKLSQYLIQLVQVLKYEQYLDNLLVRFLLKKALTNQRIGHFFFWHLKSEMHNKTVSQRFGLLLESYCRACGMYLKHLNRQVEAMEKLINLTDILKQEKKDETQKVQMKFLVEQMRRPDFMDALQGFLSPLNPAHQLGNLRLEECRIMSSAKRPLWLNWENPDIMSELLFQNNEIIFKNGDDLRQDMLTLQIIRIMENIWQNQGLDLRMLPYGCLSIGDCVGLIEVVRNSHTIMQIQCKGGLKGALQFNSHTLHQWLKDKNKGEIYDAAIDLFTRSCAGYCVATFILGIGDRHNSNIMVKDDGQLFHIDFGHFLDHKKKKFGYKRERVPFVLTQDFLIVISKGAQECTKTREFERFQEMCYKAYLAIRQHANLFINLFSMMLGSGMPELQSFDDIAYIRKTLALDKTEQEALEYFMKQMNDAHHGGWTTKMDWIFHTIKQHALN

[8] = target: T2, Phosphatidylinositol 4,5-bisphosphate 3-kinase catalytic subunit delta isoform (Homo sapiens, UniProt O00329); assay: Inhibition of PI3Kdelta (unknown origin)
T2 sequence (O00329 whole entry): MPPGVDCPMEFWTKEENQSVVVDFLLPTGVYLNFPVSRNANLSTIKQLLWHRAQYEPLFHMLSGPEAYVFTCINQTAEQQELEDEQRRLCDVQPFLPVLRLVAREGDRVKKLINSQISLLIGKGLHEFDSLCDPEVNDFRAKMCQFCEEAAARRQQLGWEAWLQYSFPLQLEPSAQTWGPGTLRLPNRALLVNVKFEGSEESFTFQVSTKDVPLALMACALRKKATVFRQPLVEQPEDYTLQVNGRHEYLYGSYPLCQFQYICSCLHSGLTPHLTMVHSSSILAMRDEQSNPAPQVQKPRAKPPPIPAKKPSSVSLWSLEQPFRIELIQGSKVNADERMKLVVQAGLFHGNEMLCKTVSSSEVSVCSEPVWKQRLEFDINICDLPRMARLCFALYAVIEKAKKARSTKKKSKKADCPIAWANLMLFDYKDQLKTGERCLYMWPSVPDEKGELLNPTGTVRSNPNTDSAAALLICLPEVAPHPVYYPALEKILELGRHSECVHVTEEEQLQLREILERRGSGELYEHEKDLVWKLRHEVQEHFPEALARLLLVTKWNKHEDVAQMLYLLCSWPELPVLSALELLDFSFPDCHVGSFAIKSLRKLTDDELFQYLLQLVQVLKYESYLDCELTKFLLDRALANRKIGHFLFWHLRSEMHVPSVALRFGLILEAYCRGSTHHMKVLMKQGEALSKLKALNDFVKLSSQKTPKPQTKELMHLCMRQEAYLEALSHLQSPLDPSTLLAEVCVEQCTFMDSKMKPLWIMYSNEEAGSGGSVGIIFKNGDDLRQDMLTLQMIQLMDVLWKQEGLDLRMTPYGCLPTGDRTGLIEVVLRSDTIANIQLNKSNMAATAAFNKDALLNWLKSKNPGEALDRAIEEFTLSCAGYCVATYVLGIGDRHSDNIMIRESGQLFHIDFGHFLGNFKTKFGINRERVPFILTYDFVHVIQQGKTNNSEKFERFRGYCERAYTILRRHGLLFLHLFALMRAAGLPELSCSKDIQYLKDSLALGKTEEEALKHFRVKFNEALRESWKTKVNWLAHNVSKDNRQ

[9] = target: Glycogen synthase kinase-3 (Homo sapiens, UniProt P49840+P49841); assay: Inhibition of GSK3 (unknown origin); format: protein assay
[10] = test system: Influenza A virus; assay: Antiviral activity against influenza A virus A/PR/8/34 strain incubated with MDCK cells assessed as reduction of viral RNA level equal to 1% of control level after 72 hrs by branched DNA assay; format: functional, organism-based; conditions: A/Puerto Rico/8/1934(H1N1)
[11] = target: Cyclin-dependent kinase 2 (Homo sapiens, UniProt P24941); assay: Inhibition of CDK2 (unknown origin)
[12] = target: Rho-associated protein kinase (Homo sapiens, UniProt O75116+Q13464); assay: Inhibition of ROCK (unknown origin); format: protein-complex assay
[13] = test system: Influenza A virus; assay: Antiviral activity against Influenza A virus A/PR/8/34 strain incubated with MDCK cells assessed as cell protection after 72 hrs by phenotypic cell protection assay; format: functional, organism-based; conditions: A/Puerto Rico/8/1934(H1N1)
[14] = target: Tyrosine-protein kinase SYK (Homo sapiens, UniProt P43405); assay: Inhibition of SYK (unknown origin)
[15] = target: Proto-oncogene tyrosine-protein kinase Src (Homo sapiens, UniProt P12931); assay: Inhibition of SRC (unknown origin)
Sequence of Proto-oncogene tyrosine-protein kinase Src (P12931 2-536 limits assumed): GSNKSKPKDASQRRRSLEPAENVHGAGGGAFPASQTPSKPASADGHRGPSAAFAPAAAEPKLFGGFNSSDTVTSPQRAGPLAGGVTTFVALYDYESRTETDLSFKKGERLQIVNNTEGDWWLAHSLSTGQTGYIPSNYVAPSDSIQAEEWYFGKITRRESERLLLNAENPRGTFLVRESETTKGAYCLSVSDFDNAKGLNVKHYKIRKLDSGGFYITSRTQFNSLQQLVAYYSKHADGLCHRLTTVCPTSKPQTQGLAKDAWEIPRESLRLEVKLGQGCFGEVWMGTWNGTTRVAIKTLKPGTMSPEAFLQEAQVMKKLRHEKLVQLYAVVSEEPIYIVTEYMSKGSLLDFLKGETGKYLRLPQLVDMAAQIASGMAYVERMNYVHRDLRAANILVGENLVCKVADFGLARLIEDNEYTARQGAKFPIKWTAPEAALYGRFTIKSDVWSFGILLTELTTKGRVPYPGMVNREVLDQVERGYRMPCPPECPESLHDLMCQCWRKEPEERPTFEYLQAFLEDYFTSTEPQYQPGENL

[16] = target: Mitogen-activated protein kinase 10 (Homo sapiens, UniProt P53779); assay: Inhibition of JNK3 (unknown origin)
Sequence of Mitogen-activated protein kinase 10 (P53779 whole entry): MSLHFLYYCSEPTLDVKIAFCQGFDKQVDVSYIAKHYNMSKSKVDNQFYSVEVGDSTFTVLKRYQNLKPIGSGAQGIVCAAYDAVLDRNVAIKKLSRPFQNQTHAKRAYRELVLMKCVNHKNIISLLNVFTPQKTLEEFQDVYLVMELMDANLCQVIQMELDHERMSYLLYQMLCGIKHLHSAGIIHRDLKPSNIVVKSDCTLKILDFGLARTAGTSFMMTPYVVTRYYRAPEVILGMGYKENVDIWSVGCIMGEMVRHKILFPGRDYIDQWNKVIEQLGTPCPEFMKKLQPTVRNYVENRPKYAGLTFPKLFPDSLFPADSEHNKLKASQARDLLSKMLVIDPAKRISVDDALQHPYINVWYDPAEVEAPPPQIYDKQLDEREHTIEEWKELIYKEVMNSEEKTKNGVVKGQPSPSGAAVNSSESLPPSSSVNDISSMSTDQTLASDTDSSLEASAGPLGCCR

[17] = target: T3, Receptor-type tyrosine-protein kinase FLT3 (Homo sapiens, UniProt P36888); assay: Inhibition of FLT3 (unknown origin)
T3 sequence (P36888 whole entry): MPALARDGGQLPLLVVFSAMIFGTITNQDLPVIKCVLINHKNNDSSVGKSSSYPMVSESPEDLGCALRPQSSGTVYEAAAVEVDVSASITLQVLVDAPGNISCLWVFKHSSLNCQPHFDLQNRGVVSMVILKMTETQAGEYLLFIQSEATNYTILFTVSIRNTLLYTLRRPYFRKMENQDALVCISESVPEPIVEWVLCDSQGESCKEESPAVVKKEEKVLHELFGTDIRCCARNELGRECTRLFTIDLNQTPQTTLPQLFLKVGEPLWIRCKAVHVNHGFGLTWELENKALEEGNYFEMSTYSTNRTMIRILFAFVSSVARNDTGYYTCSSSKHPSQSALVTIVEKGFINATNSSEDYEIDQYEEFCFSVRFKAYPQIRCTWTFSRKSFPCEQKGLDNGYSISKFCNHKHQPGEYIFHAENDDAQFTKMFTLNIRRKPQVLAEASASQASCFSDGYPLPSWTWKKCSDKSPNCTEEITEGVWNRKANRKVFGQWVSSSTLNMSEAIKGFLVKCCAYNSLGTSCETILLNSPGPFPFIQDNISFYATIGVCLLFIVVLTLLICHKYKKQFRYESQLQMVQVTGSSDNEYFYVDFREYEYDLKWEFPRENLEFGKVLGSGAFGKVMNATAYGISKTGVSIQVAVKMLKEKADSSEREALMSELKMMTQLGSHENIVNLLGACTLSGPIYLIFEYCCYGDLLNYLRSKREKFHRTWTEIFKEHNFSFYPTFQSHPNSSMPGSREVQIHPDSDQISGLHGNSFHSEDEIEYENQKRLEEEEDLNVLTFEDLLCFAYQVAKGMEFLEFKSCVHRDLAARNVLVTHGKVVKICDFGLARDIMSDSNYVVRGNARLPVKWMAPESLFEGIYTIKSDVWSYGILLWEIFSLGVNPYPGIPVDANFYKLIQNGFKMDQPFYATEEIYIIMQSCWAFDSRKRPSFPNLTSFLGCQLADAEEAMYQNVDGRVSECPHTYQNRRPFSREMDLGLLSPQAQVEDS

[18] = target: Hepatocyte growth factor receptor (Homo sapiens, UniProt P08581); assay: Inhibition of MET (unknown origin)
[19] = target: Phosphatidylinositol 4,5-bisphosphate 3-kinase catalytic subunit gamma isoform (Homo sapiens, UniProt P48736); assay: Inhibition of PI3Kgamma (unknown origin)
[20] = target: Tyrosine-protein kinase JAK2 (Homo sapiens, UniProt O60674); assay: Inhibition of JAK2 (unknown origin)

O=c1[nH]c(=O)n(C[C@H]2C3CCC(CC3)[C@@H]2Nc2nc(-c3c[nH]c4ncc(F)cc34)ncc2F)o1 (mixture of isomers)
pKa [1]: 5.2
Ki [2]: > 4000 nM
Ki [3]: > 4000 nM
Ki [4]: > 4000 nM
Ki [5]: 2000 nM
Ki [6]: 1100 nM
Ki [7]: 1500 nM
Ki [8]: 180 nM
Ki [9]: 23 nM
EC50 [10]: 36 nM
EC99 [10]: 0.21 µM
Ki [11]: > 4000 nM
Ki [12]: > 4000 nM
IC50 [13]: 48 nM
Ki [14]: > 4000 nM
Ki [15]: > 4000 nM
Ki [16]: > 4000 nM
Ki [17]: 210 nM
Ki [18]: > 4000 nM
Ki [19]: 630 nM
Ki [20]: 270 nM

From ChEMBL document CHEMBL3399966, “Isosteric replacements of the carboxylic acid of drug candidate VX-787: Effect of charge on antiviral potency and kinase activity of azaindole-based influenza PB2 inhibitors” (Bioorg Med Chem Lett, 2015)
